Experimental data: US9133255B2, “Products and methods using soy peptides to lower total and LDL cholesterol levels” (SOY LABS, LLC, priority 2006, dated 2015)

Columns and labels:
[1] = tested on: non-tumorigenic (RWPE-1) prostate cells; details: 2 uM lunasin, cited from earlier work
[2] = molecular target: T1, histone H3 acetylation by PCAF (Homo sapiens, UniProt P68431); assay: HAT assay with PCAF, HeLa core histones; assay type: biochemical; details: FIG. 8
T1 construct: The core histones isolated from untreated HeLa cells were used as a negative control; purchased Upstate/Millipore; host or cells: HeLa cells (histones)
Procedure: A confirmatory experiment to determine the biological activity of digested and undigested LeSC and LeSC+SF was conducted using a different core histone template. This time we used the core histones extracted from HeLa tumor cells. Unlike the chicken erythrocyte cells, core histones from sodium butyrate treated HeLa cells are commercially available (Upstate/Millipore, Piscataway, N.J.), and can be used as a positive control for histone acetylation. The core histones isolated from untreated HeLa cells were used as a negative control (low levels of histone acetylation) and as template for the HAT assay.
The HAT bioactivity assay was conducted using acid extracted core histones from HeLa cells (Upstate/Millipore) as a template (temp (−) control) for the PCAF catalyzed HAT reaction. […] The numbers below the legend indicate relative densitometer readings normalized using immunosignal from the template (temp). […]
LeSC+SF was partially digested by mixing it with freshly prepared pancreatin solution (10 ug/mL of distilled water) in a 1:0.5, (w/w) ratio. […] However, the conditions for the partial digestion of LeSC+SF has to be determined empirically by analyzing digestion products for lunasin content (FIG. 6) and biological activity using the HAT assay (FIG. 8.)

LDL-receptor = LDL-receptor expression in HepG2 cells, Western blot; assay type: cell-based; details: 10 uM synthetic lunasin 24 h, cholesterol-free media 24 h, densitometry, FIG. 3
Procedure: (§1) In cell culture of HepG2 liver cells, it is possible to activate SREBP and increase the expression of HMG-CoA reductase and LDL-receptor by removing cholesterol in the growth media. This can be achieved by exposing the cells to serum-free media for 24 hours (31, 32).
(§2) In the second experiment, HepG2 cells (1×10^6) were treated with or without 10 uM synthetic lunasin in DMEM with 10% FBS for 24 hours before growth media is replaced with cholesterol-free media to activate SREBP. After 24 hours, total protein was extracted and 10 ug proteins loaded onto 10% Tris-glycine gels, electroblotted onto nitrocellulose membrane, and immunostained with primary antibodies raised against LDL-receptor and actin (to show equal loading of proteins). Spot densitometer values were obtained by digital scanning and Un-Scan It software, and represent mean and standard deviation of data from three separate experiments.

[3] = tested on: histone H3 and H4 acetylation; details: cited from earlier work
p21/WAF1/Cipi = details: NIH 3T3 cells pre-treated 24 hours, eight days after E1A transfection; cited from earlier work
E1A-transfected cells = details: cited from earlier work
C3H/T101/2 cells = details: cited from earlier work
HMG-CoA reductase = HMG-CoA reductase expression in HepG2 cells, Western blot; assay type: cell-based; details: 10 uM synthetic lunasin 24 h, cholesterol-free media 24 h, densitometry, FIG. 2
Procedure: as §1
as §2, with “the first” for “the second”, “media was” for “media is”, “ug protein was” for “ug proteins”, “against HMG-CoA reductase” for “against LDL-receptor”, “values are” for “values were”

Sp1 = Sp1 level in HepG2 cells, Western blot; assay type: cell-based; details: 10 uM synthetic lunasin
Procedure: Unlike HMG-CoA reductase, SREBP activation of LDL-receptor by sterol depletion requires increased recruitment of Sp1 co-activator to a site adjacent to SREBP in the promoter/regulatory sequence of LDL-receptor gene (25). […] To test this hypothesis, the level of Sp1 was determined in lunasin-treated growth media and cholesterol-free media by Western analysis using Sp1 antibody, as follows: HepG2 cells (1×10^6) were grown from confluence in DMEM with 10% FBS for 24 hours before growth media was replaced with fresh growth media or cholesterol-free media (to activate SREBP) and treated with, or without 10 uM synthetic lunasin. After 24 hours, total protein was extracted from each treatment and 10 ug protein loaded onto 10% Tris-glycine gels, electroblotted onto nitrocellulose membrane, and immunostained with primary antibodies raised against Sp1 and actin (to show equal loading of proteins). Spot densitometer values were obtained by digital scanning and Un-Scan It software and represent data from one experiment.

[4] = molecular target: T2, histone H3 acetylation by PCAF (Gallus gallus, UniProt P84229); assay: H3 histone acetyltransferase (HAT) assay with PCAF, chicken erythrocyte core histones; assay type: biochemical; details: vs untreated control, FIG. 7
T2 construct: Core histones purified from chicken erythrocyte cells were used as templates in histone acetylase (HAT) reactions; purchased Upstate/Millipore; host or cells: chicken erythrocytes (histones)
Source text: The invention further provides an in vitro assay that can be used to screen potential sources of lunasin or analogues, fragments or variants of lunasin for biologically active material useful in the methods of the present invention. In one embodiment of the present invention, core histones purified from acid-extracted proteins of HeLa cells and chicken erythrocyte cells as well as recombinant histone H3 (commercially available from Upstate/Millipore) are used as templates in histone acetylase (HAT) reactions using PCAF histone acetylase enzyme in the presence or absence of lunasin. […] Chemiluminescent signals from antibody complexes can be visualized using standard chemiluminescent reagents and exposed to Kodak BioMAX film, developed and spot densitometer measured by using digital scanner and UN-SCAN-IT software program from Silk Scientific (Orem, Utah).
Biological activity of LeSC (A), LeSC+SF (B), digested LeSC+SF (C), digested LeSC (D), digested soy protein isolate (E) and digested soy concentrate (F) was measured using the H3 histone acetyltransferase (HAT) assay (see Example 8.) Around 100 mg total protein of LeSC, LeSC+SF, soy protein isolate and soy concentrate were digested by mixing pancreatin (Sigma Life Sciences, Saint Louis, Mo.) at 1:1 (w/w) and incubating for 30 min. at 40° C. […]

skin tumor = details: mice, applied topically, ethanol as delivery system; cited from earlier work
deacetylated histone H4 = deacetylated histone H4 (Homo sapiens, UniProt P62805); details: cited from earlier work
[5] = tested on: tumorigenic (RWPE-2) prostate cells; details: 2 uM lunasin, cited from earlier work
[6] = cited from earlier work

H3 acetylation by PCAF (biological activity), undigested sample [2]: Significant reduction in H3 acetylation
H3 acetylation by PCAF (biological activity), undigested sample [4]: significant reduction in H3 acetylation
Substance: lunasin: natural, synthetically or recombinantly obtained soybean lunasin polypeptide (SEQ ID 2), small subunit of a cotyledon-specific 2S albumin
number of genes with greater than twofold change in expression ([1]; 24 hours, of 14500 genes, RWPE-1 and RWPE-2 together): 123 genes
number of genes up-regulated ([1]; RWPE-1 cells, 24 hours): 121 genes
genes down-regulated ([1]; non-tumorigenic epithelial cells): No genes were down-regulated
increase of LDL-receptor expression (LDL-receptor): more than 60%
histone H3 and H4 acetylation [3]: inhibits histone H3 and H4 acetylation
increase in p21/WAF1/Cipi protein levels (p21/WAF1/Cipi): five-fold
apoptosis (E1A-transfected cells): induces apoptosis
reduction of foci formation (C3H/T101/2 cells; cells pre-treated with lunasin, exposed to DMBA and MCA): 70%
concentration sufficient to suppress foci formation (C3H/T101/2 cells; single 24 hour exposure, assays lasted six weeks): 125 nM
reduction of HMG-CoA reductase expression (HMG-CoA reductase): more than 50%
further increase of Sp1 levels (Sp1; cholesterol-free media, FIG. 4, one experiment): ~60%
Sp1 levels, lunasin-treated vs control (Sp1; growth media, FIG. 4): not significantly different
skin tumor formation (skin tumor): reduce skin tumor formation
binding to histones (deacetylated histone H4): binds preferentially to deacetylated histone H4
number of genes up-regulated ([5]; RWPE-2 cells, 24 hours): two
genes down-regulated ([5]; tumorigenic epithelial cells): No genes were down-regulated
water solubility [6]: water soluble
